The text below walks through data of patent US6656911B2, “Serine protease inhibitors” (Cortech, Inc., priority 1994, dated 2003).

In assay [1] the target is T1, human neutrophil elastase (HNE) (Homo sapiens, UniProt P08246).
T1 sequence (P08246 30-267): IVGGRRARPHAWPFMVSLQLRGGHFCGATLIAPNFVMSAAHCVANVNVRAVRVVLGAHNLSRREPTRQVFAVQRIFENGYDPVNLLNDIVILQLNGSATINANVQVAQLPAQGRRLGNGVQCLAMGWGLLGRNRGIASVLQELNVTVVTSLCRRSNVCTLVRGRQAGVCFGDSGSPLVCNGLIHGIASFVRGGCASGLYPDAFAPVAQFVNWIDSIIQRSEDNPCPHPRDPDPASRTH
The experiment in a line: HNE Ki of CE compounds, tested as described in WO 96/16080. It is filed as biochemical. To be noted: read-out: HNE Ki.

Assay [2] deals with polymorphoneucleocyte (PMN). Put plainly: Extracellular Matrix (ECM) degradation assay. It is filed as cell-based. Particulars: PMN's stimulated with opsonized zymosan, 4 hr at 37° C.; for ECM DATA % Inhibition 1 uM / inhibition at 1 µM: 1 uM inhibitor; for ECM DATA % Inhibition 5 uM / inhibition at 5 µM: 5 uM inhibitor. Here is the method: Forty-eight well plates on which extracellular matrix had been established were supplied to Cortech by Dr. Simon's group at the State University of New York at Stony Brook. Briefly, the plates were prepared as follows: R22 rat heart smooth muscle cells were seeded into wells at 2.5×10^4 cells/cm. The cells were fed every 4 days with Eagle's Minimal Essential Media supplemented with fetal bovine serum, tryptose phosphate broth, cefotaxime and streptomycin. At confluence, daily supplements of 50 ug/ml ascorbic acid were added for 8 to 10 days during the synthesis of the ECM layer. [^35S]sulfate and [^3H]proline were also added to the culture media to incorporate radiolabel into the matrix. Cells were later lysed with 25 mM NH4OH. Plates were washed three times with water and once with phosphate-buffered saline containing 0.02% NaN3. Plates were stored at 4° C. until use.
Matrix degradation assays were performed as follows: 0.40 ml of Hanks balance salt solution (HBSS) containing 1 or 5 uM test inhibitor (final concentration; diluted from DMSO stock solution; <2% DMSO final concentration) was added to the wells. After 30 minutes, 50 ul of a polymorphoneucleocyte (PMN) suspension was added resulting in 5×10^5 cells/well. PMN's were stimulated with opsonized zymosan. Zymosan particles were washed and suspended in 0.5 ml human serum for 1 hr at 37° C., vortexing every 15 min. The particles were then washed three times with HBSS and added to wells at a ratio of 10 particles/PMN in a volume of 50 ul. After a 4 hr incubation at 37° C., a 100 ul aliquot of the supernatant was withdrawn for scintillation counting. Following removal of the remaining supernatant, the residual ECM was solubilized with 0.5 ml 2M NaOH. The amount of tritium in this solubilized ECM was accessed by scintillation. ECM degradation data are expressed as (soluble counts released/total ECM counts)—(basal counts released without PMN's/total ECM counts).

For the compound `CCCCc1nnc(C(=O)C(NC(=O)CN2C(=O)C(N)N=C(c3ccccn3)c3ccccc32)C(C)C)o1` [CE2218, (R,S)-3-Amino-2-oxo-5-(2-pyridyl)-1,4-benzodiazepine-N-[1-(2-[5-(3-methylpropyl)-1,3,4-oxadiazolyl]carbonyl)-2-(R,S)-methylpropyl]acetamide], the inhibition constant (Ki) – broadly, a dissociation constant, usually derived from enzyme kinetics or from competition with a known ligand – in assay [1] turned out to be 1.6 nM. Further, in assay [2], the “ECM DATA % Inhibition 1 uM” value turned out to be 30.5% and the “ECM DATA % Inhibition 5 uM” value was 33.15%.
In the case of `CC1=NC(N)C(=O)N(CC(=O)NC(C(=O)c2nnc(Cc3cccc(C)c3)o2)C(C)C)c2ccccc21` [CE2226, (R,S)-3-Amino-2-oxo-5-methyl-1,4-benzodiazepine-N-[1-(2-[5-(3-methylbenzyl)-1,3,4-oxadiazolyl]carbonyl)-2-(R,S)-methylpropyl]acetamide], in assay [1], the inhibitory constant (Ki) is 10.3 nM. In assay [2], the inhibition (usually the drop in the measured response relative to a control, in per cent) at 1 µM worked out at 27.6% and the inhibition at 5 µM is 52.2%.
`Cc1cccc(Cc2nnc(C(=O)C(NC(=O)CN3C(=O)C(N)N=C(c4ccccc4Cl)c4cc(Cl)ccc43)C(C)C)o2)c1` [CE2229, (R,S)-3-Amino-2-oxo-5-(2-chlorophenyl)-1,4-(2′-chlorobenzodiazepine)-N-[1-(2-[5-(3-methylbenzyl)-1,3,4-oxadiazolyl]carbonyl)-2-(R,S)-methylpropyl]acetamide]: the Ki in assay [1] turned out to be 9.5 nM. In addition, in assay [2], the “ECM DATA % Inhibition 1 uM” value is 31.25% and the “ECM DATA % Inhibition 5 uM” value came out at 48.2%.
On to `Cc1cccc(Cc2nnc(C(=O)[C@@H](NC(=O)Cn3c(-c4ccccn4)nc4ccccc43)C(C)C)o2)c1` [CE2234, 2-(2-Pyridyl)-benzimidazole-N-[1-(2-[5-(3-methylbenzyl)-1,3,4-oxadiazolyl]carbonyl)-2-(S)-methylpropyl]acetamide], for which the Ki in assay [1] was determined as 796 nM. Also, in assay [2], testing at 1 µM gave an inhibition of 39.7% and the inhibition at 5 µM is 35%.
`COc1cc2c(cc1OC)N(CC(=O)NC(C(=O)c1nnc(Cc3cccc(C)c3)o1)C(C)C)C(=O)C(N)N=C2C` [CE2235, (R,S)-3-Amino-2-oxo-5-methyl-1,4-(2′,3′-dimethoxybenzodiazepine)-N-[1-(2-[5-(3-methylbenzyl)-1,3,4-oxadiazolyl]carbonyl)-2-(R,S)-methylpropyl]acetamide]: in assay [1], the Ki is 9.5 nM. In assay [2], the “ECM DATA % Inhibition 1 uM” value came to 19.75% and the “ECM DATA % Inhibition 5 uM” value was determined as 13.25%.
Turning to `Cc1ccc(C2=NCC(=O)N(CC(=O)N[C@H](C(=O)c3nnc(Cc4cccc(C)c4)o3)C(C)C)c3ccccc32)cc1` [CE2242, 2-Oxo-5-phenyl-1,4-(4′-methylbenzodiazepine)-N-[1-(2-[5-(3-methylbenzyl)-1,3,4-oxadiazolyl]carbonyl)-2-(S)-methylpropyl]acetamide], in assay [1], the inhibition constant (Ki) was 27 nM. In addition, in assay [2], the “ECM DATA % Inhibition 1 uM” value is reported as 29.4% and the “ECM DATA % Inhibition 5 uM” value is 40.7%.
For `COc1ccccc1C1=NCC(=O)N(CC(=O)N[C@H](C(=O)c2nnc(Cc3cccc(C)c3)o2)C(C)C)c2ccccc21` [CE2250, 2-Oxo-5-(2-methoxyphenyl)-1,4-benzodiazepine-N-[1-(2-[5-(3-methylbenzyl)-1,3,4-oxadiazolyl]carbonyl)-2-(S)-methylpropyl]acetamide], the inhibitory constant (Ki) in assay [1] was found to be 6.9 nM. In assay [2], the inhibition at 1 µM turned out to be 27.4% and at 5 µM the inhibition was 48.6%.
With `Cc1cccc(Cc2nnc(C(=O)[C@@H](NC(=O)CN3C(=O)N[C@H](Cc4ccc(O)cc4)C3=O)C(C)C)o2)c1` [CE2255, 4-(R)-(4-Hydroxybenzyl)-2,5-imidazolidinedione-N-[1-(2-[5-(3-methylbenzyl)-1,3,4-oxadiazolyl]carbonyl)-2-(S)-methylpropyl]acetamide], in assay [1], the inhibition constant (Ki) is 18 nM. In assay [2], the “ECM DATA % Inhibition 1 uM” value is listed as 20.7% and the “ECM DATA % Inhibition 5 uM” value is recorded as 42%.
